Test results published in publication PMC3059997, “Exploring Indirect Sources of Human Exposure to Perfluoroalkyl Carboxylates (PFCAs): Evaluating Uptake, Elimination, and Biotransformation of Polyfluoroalkyl Phosphate Esters (PAPs) in the Rat” (Environmental Health Perspectives, 2010).

Assays:
[1] = Uptake experiment: monoPAP mixture by oral gavage, analytes in whole blood; assay type: in vivo, Sprague-Dawley rats; details: male, Sprague-Dawley, rat, in vivo, po, monoPAP gavage dose
Experimental: (§1) This research was conducted under an animal use protocol approved by the University of Toronto Animal Care Committee. All animals were treated humanely and with regard for alleviation of suffering. Sprague-Dawley rats were obtained from Charles River Laboratories Inc. (Sherbrooke, QC, Canada) The animals were singly housed and exposed to a 12/12 hr light/dark cycle with food and water available ad libitum. Blood samples were collected from the saphenous vein using Microvette CB 300 vials (Sarstedt AG & Co., Montreal, QC, Canada) embedded with lithium-heparin as an anticoagulant. Whole-blood samples were stored at −20°C, and urine and feces samples were stored at 4°C.
(§2) Two groups of four 8-week-old male rats were administered a mixture of 4:2, 6:2, 8:2, and 10:2 diPAP or monoPAP, respectively, each at about 50 mg/kg, at 4 mL/kg by oral gavage without prior fasting. […] Two control male rats were administered clean vehicle at 4 mL/kg [for details, see Supplemental Material, Table 3 (doi:10.1289/ehp.1002409)].
(§3) Blood was collected from all animals 3 days before dosing to establish background contamination. For the uptake experiment, blood samples were collected at 1, 3, and 6 hr and 1, 2, 4, 7, 10, 14, 18, and 22 days after dosing. For the elimination experiment, blood samples were collected at 2, 4, and 6 hr and 1, 2, 4, 8, 11, 15, and 18 days after dosing. On the final sampling day, the animals were sacrificed by carbon dioxide asphyxiation, and about 10 mL of blood was collected by cardiac puncture into a BD Vacutainer embedded with lithium-heparin.
(§4) The compounds of interest fall into four categories: a) the diPAP and monoPAP parent compounds, b) the saturated and unsaturated fluorotelomer carboxylic acid (FTCA and FTUCA) metabolic intermediates, c) the FTOH-sulfate and FTOH-glucuronide phase II metabolites, and d) the final PFCA biotransformation products [see Supplemental Material, Table 1 (doi:10.1289/ehp.1002409)]. We analyzed these compounds in whole blood, urine, and feces samples. For full analytical details, see Supplemental Material. All PFCAs, FTCAs, FTUCAs, and phase II metabolites were quantified by internal calibration. Because internal standards were not available, monoPAPs and diPAPs were quantified by standard addition. We performed spike and recovery experments to validate the extraction and quantification techniques used (for details, see Supplemental Material).
(§5) Analyte and matrix specific limits of detection (LODs) and limits of quantification (LOQs) are provided in Supplemental Material (doi:10.1289/ehp.1002409). For the purpose of calculating means, values < LOD were assigned a value of zero, and values < LOQ but > LOD were used unaltered but are indicated by asterisks in figures and parentheses in tables. Values are presented using the arithmetic mean ± SE. Full data sets are available in Supplemental Material.

[2] = Uptake experiment: diPAP mixture by oral gavage, analytes in whole blood; assay type: in vivo, Sprague-Dawley rats; details: male, Sprague-Dawley, rat, in vivo, po, diPAP gavage dose, whole blood
Experimental: as §1, §2, §3, §4
as §5, with “Material. […]” for “Material.”

[3] = set-up: method as in Olsen et al. 2007; details: ref Olsen et al. 2007; cited from earlier work
[4] = Elimination experiment: monoPAP mixture by IV injection, analytes in whole blood; assay type: in vivo, Sprague-Dawley rats; details: male, Sprague-Dawley, rat, in vivo, monoPAP IV dose
Experimental: as §1
(§6) Two groups of four 8-week-old male rats were administered a mixture of 4:2, 6:2, 8:2, and 10:2 diPAP or monoPAP, respectively, each at about 15 mg/kg, at 2 mL/kg by intravenous (IV) injection into the lateral tail vein. The dosing vehicle was 50:50 propylene glycol:water. Two control male rats were administered clean vehicle at 2 mL/kg [for details see Supplemental Material, Table 3 (doi:10.1289/ehp.1002409)].
as §3, §4, §5

[5] = Elimination experiment: diPAP mixture by IV injection, analytes in whole blood; assay type: in vivo, Sprague-Dawley rats; details: male, Sprague-Dawley, rat, in vivo, diPAP IV dose, whole blood
Experimental: as §1, §6, §3, §4
as §5, with “Material. […]” for “Material.”

Compound: O=C(O)C(F)(F)C(F)(F)C(F)(F)C(F)(F)C(F)(F)C(F)(F)C(F)(F)F [PFOA, perfluorooctanoic acid]
- Tmax ([1]; 50 mg/kg, whole blood, read-out: Tmax (converted)): 24 h
- Cmax ([1]; 50 mg/kg, whole blood, values in parentheses < LOQ but > LOD, read-out: Cmax): 28 ± 8 ng/g
- Half-life ([1]; about 50 mg/kg each, PFCA product in whole blood, read-out: Half-life (converted)): 240 h
- Cmax ([2]; 50 mg/kg, mean ± SE, values in parentheses < LOQ but > LOD, read-out: Cmax): 7.2 ± 1.7 ng/g
- Tmax ([2]; 50 mg/kg, read-out: Tmax (converted)): 96 h
- Half-life ([2]; about 50 mg/kg each, mean ± SE, read-out: Half-life (converted)): 264 h
- Human serum half-life (arithmetic) [3]: 4.5 years
- Cmax ([4]; 15 mg/kg, whole blood, read-out: Cmax): 8.5 ± 1.4 ng/g
- Tmax ([4]; 15 mg/kg, whole blood, read-out: Tmax (converted)): 96 h
- Half-life ([4]; about 15 mg/kg each, PFCA product in whole blood, read-out: Half-life (converted)): 288 h
- Cmax ([5]; 15 mg/kg, mean ± SE, values in parentheses < LOQ but > LOD, read-out: Cmax): 9.3 ± 2.4 ng/g
- Tmax ([5]; 15 mg/kg, read-out: Tmax (converted)): 48 h
- Half-life ([5]; about 15 mg/kg each, mean ± SE, read-out: Half-life (converted)): 552 h
